Source: US20260137696A1, “Compositions Comprising an Inhibitor of Galectin-3” (University of Liverpool, priority 2023, published 2026)

Assays:
ACA19 cells = conditions: human, 24 h, 100 uM
Procedure: (§1) The compounds of Formula I and Formula II cytotoxicity in human colon cancer SW620 (FIG. 8A), vascular HUVEC (FIG. 8B) and human melanoma ACA19 (FIG. 9C) cells was assessed in the absence or presence of various concentrations of the compounds of Formula I and Formula II (the chemotherapeutic drug Etoposide, Etop, was also included as positive control) by Lactate dehydrogenase (LDH) release assay.
as §1, with “(ACA19+) cells, which” for “ACA19 (FIG. 9C) cells”
(§2) SW620 and ACA19+ cells (5×10^4 cells/ml) were seeded into 96-well plate in DMEM and incubated at […] 5% CO2 for 24 hr. HUVECs (1.0×10^5 cells/ml) was seeded in EBM medium and incubated for 24-36 hr until they formed a monolayer. Compound inhibitors at different concentrations were then introduced to the cells (10× lysis buffer was included as maximum LDH activity control) for 24 hr. The culture medium was transferred to a new plate and was mixed with equal volume of reaction mixture provided in the kit for 30 min at room temperature before the absorbance was measured at 490 nm (reference 680 nm) by a spectrophotometer.

SW620 cells = conditions: human, 24 h, 100 uM
Procedure: as §1
as §1, with “(ACA19+) cells, which” for “ACA19 (FIG. 9C) cells”
as §2

HUVEC cells = conditions: human, 24 h, 100 uM
Procedure: as §1
as §1, with “(ACA19+) cells, which” for “ACA19 (FIG. 9C) cells”
as §2

[1] = tested on: Salmonella typhimurium strain TA98; assay: Ames test (genotoxicity); assay type: cell-based
Procedure: (§3) Mutagenic potential of the compound of Formula I was assessed by Ames test in two Salmonella typhimurium strains TA98 and TA100 without and with metabolic activation (S9).
(§4) Effect of the compound inhibitors on genotoxicity was determined using the Salmonella typhimurium strains of TA 98 and TA 100 in the presence and absence of metabolic activation (S9). Each test concentration included the vehicle and positive controls. Briefly, the compounds were serially diluted in 24-well plates with or without the presence metabolic activation system (S9) and was incubated for 90 min at 37° C. in 250 rpm in a orbital shaking incubator. TA98 and TA100 were then introduced to the wells for 90 min. 50 μL aliquots from each well was dispensed into 384 well plates and incubated for 48 hrs at 37° C. in an incubator before positive wells were scored.

[2] = tested on: Salmonella typhimurium strain TA100; assay: Ames test (genotoxicity); assay type: cell-based
Procedure: as §3, §4

Structure (SMILES) | cytotoxicity (LDH release) (ACA19 cells) | cytotoxicity (LDH release) (SW620 cells) | cytotoxicity (LDH release) (HUVEC cells) | revertant colony count [1] | revertant colony count [2]
COc1cc([C@@H]2c3cc4c(cc3[C@@H](O[C@@H]3O[C@@H]5CO[C@@H](C)O[C@H]5[C@H](O)[C@H]3O)[C@H]3COC(=O)[C@H]23)OCO4)cc(OC)c1O [Etoposide] | ~100% | ~100% | ~100% | – | –
Nc1ccc2cc3ccccc3cc2c1 [Formula 2AA, reference compound] | – | – | – | distinct increase | distinct increase
